Read-outs that look alike come from different tables or passages of the source. Each block holds one molecule with its values, some of them ahead of it.
Experiments:
Assay in all cases: MTT assay, pancreatic cancer cell line
Type in all cases: cell-based, human
Conditions in all cases: 72 h
[1] = tested on: AsPC1
[2] = tested on: PANC1
[3] = tested on: Mia-PaCa2
[4] = tested on: BxPC3
[5] = tested on: HPAC

- IC50 ([1]; Homo sapiens, AsPC1 (dFdC-resistant), single agent, read-out: IC50): 1830 ± 470 nM
- IC50 ([2]; Homo sapiens, PANC-1, PANC1 (dFdC-resistant), single agent, read-out: IC50): 11600 ± 2930 nM
- IC50 ([3]; Homo sapiens, MIA PaCa-2, Mia-PaCa2 (dFdC-resistant), single agent, read-out: IC50): 11500 ± 2900 nM
- IC50 ([4]; Homo sapiens, BXPC-3, BxPC3 (dFdC-sensitive), single agent, read-out: IC50): 70 ± 5 nM
- IC50 ([5]; Homo sapiens, HPAC (dFdC-sensitive), single agent, read-out: IC50): 70 ± 7 nM
Compound: Nc1ccn([C@@H]2O[C@H](CO)[C@@H](O)C2(F)F)c(=O)n1 [dFdC, gemcitabine]

Compound: [NH2][Pt]([NH2])([Cl])[Cl] [CDDP, cisplatin]
- IC50 ([1]; AsPC1, NSC-30049 0 μM, 1 μM dFdC, read-out: IC50 of CDDP): 3190 ± 280 nM
- IC50 ([1]; AsPC1, NSC-30049 0 μM, no dFdC, read-out: IC50 of CDDP): 3490 ± 130 nM
- IC50 ([1]; AsPC1, NSC-30049 0.5 μM, 1 μM dFdC, read-out: IC50 of CDDP): 640 ± 80 nM
- IC50 ([1]; AsPC1, NSC-30049 0.5 μM, no dFdC, read-out: IC50 of CDDP): 2200 ± 220 nM
- IC50 ([1]; AsPC1, NSC-30049 1.0 μM, 1 μM dFdC, read-out: IC50 of CDDP): 110 ± 90 nM
- IC50 ([1]; AsPC1, NSC-30049 1.0 μM, no dFdC, read-out: IC50 of CDDP): 2090 ± 190 nM
- IC50 ([1]; AsPC1, NSC-30049 2.5 μM, 1 μM dFdC, read-out: IC50 of CDDP): 4 ± 0.1 nM
- IC50 ([1]; AsPC1, NSC-30049 2.5 μM, no dFdC, read-out: IC50 of CDDP): 200 ± 10 nM
- IC50 ([2]; PANC1, NSC-30049 0 μM, 1 μM dFdC, read-out: IC50 of CDDP): 9870 ± 800 nM
- IC50 ([2]; PANC1, NSC-30049 0 μM, no dFdC, read-out: IC50 of CDDP): 9550 ± 940 nM
- IC50 ([2]; PANC1, NSC-30049 0.5 μM, 1 μM dFdC, read-out: IC50 of CDDP): 1060 ± 390 nM
- IC50 ([2]; PANC1, NSC-30049 0.5 μM, no dFdC, read-out: IC50 of CDDP): 9000 ± 30 nM
- IC50 ([2]; PANC1, NSC-30049 1.0 μM, 1 μM dFdC, read-out: IC50 of CDDP): 1030 ± 360 nM
- IC50 ([2]; PANC1, NSC-30049 1.0 μM, no dFdC, read-out: IC50 of CDDP): 7800 ± 500 nM
- IC50 ([2]; PANC1, NSC-30049 2.5 μM, 1 μM dFdC, read-out: IC50 of CDDP): 120 ± 90 nM
- IC50 ([2]; PANC1, NSC-30049 2.5 μM, no dFdC, read-out: IC50 of CDDP): 2040 ± 410 nM
- IC50 ([3]; Mia-PaCa2, NSC-30049 0 μM, 1 μM dFdC, read-out: IC50 of CDDP): 22200 ± 1150 nM
- IC50 ([3]; Mia-PaCa2, NSC-30049 0 μM, no dFdC, read-out: IC50 of CDDP): 22300 ± 1100 nM
- IC50 ([3]; Mia-PaCa2, NSC-30049 0.5 μM, 1 μM dFdC, read-out: IC50 of CDDP): 90 nM
- IC50 ([3]; Mia-PaCa2, NSC-30049 0.5 μM, no dFdC, read-out: IC50 of CDDP): 14300 ± 490 nM
- IC50 ([3]; Mia-PaCa2, NSC-30049 1.0 μM, 1 μM dFdC, read-out: IC50 of CDDP): 70 nM
- IC50 ([3]; Mia-PaCa2, NSC-30049 1.0 μM, no dFdC, read-out: IC50 of CDDP): 13400 ± 1330 nM
- IC50 ([3]; Mia-PaCa2, NSC-30049 2.5 μM, 1 μM dFdC, read-out: IC50 of CDDP): 70 nM
- IC50 ([3]; Mia-PaCa2, NSC-30049 2.5 μM, no dFdC, read-out: IC50 of CDDP): 12200 ± 1120 nM
- IC50 ([4]; BxPC3, NSC-30049 0 μM, 0.025 μM dFdC, read-out: IC50 of CDDP): 2020 ± 350 nM
- IC50 ([4]; BxPC3, NSC-30049 0 μM, no dFdC, read-out: IC50 of CDDP): 1960 ± 80 nM
- IC50 ([4]; BxPC3, NSC-30049 0.5 μM, 0.025 μM dFdC, read-out: IC50 of CDDP): 940 ± 60 nM
- IC50 ([4]; BxPC3, NSC-30049 0.5 μM, no dFdC, read-out: IC50 of CDDP): 1530 ± 90 nM
- IC50 ([4]; BxPC3, NSC-30049 1.0 μM, 0.025 μM dFdC, read-out: IC50 of CDDP): 540 ± 60 nM
- IC50 ([4]; BxPC3, NSC-30049 1.0 μM, no dFdC, read-out: IC50 of CDDP): 1380 ± 40 nM
- IC50 ([4]; BxPC3, NSC-30049 2.5 μM, 0.025 μM dFdC, read-out: IC50 of CDDP): 40 ± 1 nM
- IC50 ([4]; BxPC3, NSC-30049 2.5 μM, no dFdC, read-out: IC50 of CDDP): 260 ± 70 nM
- IC50 ([5]; HPAC, NSC-30049 0 μM, 0.025 μM dFdC, read-out: IC50 of CDDP): 13800 ± 5510 nM
- IC50 ([5]; HPAC, NSC-30049 0 μM, no dFdC, read-out: IC50 of CDDP): 14100 ± 4340 nM
- IC50 ([5]; HPAC, NSC-30049 0.5 μM, 0.025 μM dFdC, read-out: IC50 of CDDP): 20 ± 10 nM
- IC50 ([5]; HPAC, NSC-30049 0.5 μM, no dFdC, read-out: IC50 of CDDP): 14500 ± 2470 nM
- IC50 ([5]; HPAC, NSC-30049 1.0 μM, 0.025 μM dFdC, read-out: IC50 of CDDP): 10 ± 1 nM
- IC50 ([5]; HPAC, NSC-30049 1.0 μM, no dFdC, read-out: IC50 of CDDP): 11600 ± 1820 nM
- IC50 ([5]; HPAC, NSC-30049 2.5 μM, 0.025 μM dFdC, read-out: IC50 of CDDP): 10 ± 1 nM
- IC50 ([5]; HPAC, NSC-30049 2.5 μM, no dFdC, read-out: IC50 of CDDP): 4710 ± 1240 nM

Reference: patent US9517244B2, “Therapeutic combinations for use in neoplasia” (University of Florida Research Foundation, Inc., priority 2011, dated 2016)
